Experimental data as given in USRE50050E1, “Pyrimidinedione compounds” (MyoKardia, Inc., priority 2013, dated 2024).

Target: T1, bovine cardiac myosin (Bos taurus, UniProt Q9BE39)
T1 construct: The source of cardiac myosin was from bovine heart in the form of skinned myofibrils; from tissue; host or cells: bovine heart, skinned myofibrils
Assay: Myosin inhibition assay (PK/LDH-coupled ATPase, bovine cardiac myofibrils)
Assay type: biochemical
Conditions: not given

T1 sequence (Q9BE39 whole entry): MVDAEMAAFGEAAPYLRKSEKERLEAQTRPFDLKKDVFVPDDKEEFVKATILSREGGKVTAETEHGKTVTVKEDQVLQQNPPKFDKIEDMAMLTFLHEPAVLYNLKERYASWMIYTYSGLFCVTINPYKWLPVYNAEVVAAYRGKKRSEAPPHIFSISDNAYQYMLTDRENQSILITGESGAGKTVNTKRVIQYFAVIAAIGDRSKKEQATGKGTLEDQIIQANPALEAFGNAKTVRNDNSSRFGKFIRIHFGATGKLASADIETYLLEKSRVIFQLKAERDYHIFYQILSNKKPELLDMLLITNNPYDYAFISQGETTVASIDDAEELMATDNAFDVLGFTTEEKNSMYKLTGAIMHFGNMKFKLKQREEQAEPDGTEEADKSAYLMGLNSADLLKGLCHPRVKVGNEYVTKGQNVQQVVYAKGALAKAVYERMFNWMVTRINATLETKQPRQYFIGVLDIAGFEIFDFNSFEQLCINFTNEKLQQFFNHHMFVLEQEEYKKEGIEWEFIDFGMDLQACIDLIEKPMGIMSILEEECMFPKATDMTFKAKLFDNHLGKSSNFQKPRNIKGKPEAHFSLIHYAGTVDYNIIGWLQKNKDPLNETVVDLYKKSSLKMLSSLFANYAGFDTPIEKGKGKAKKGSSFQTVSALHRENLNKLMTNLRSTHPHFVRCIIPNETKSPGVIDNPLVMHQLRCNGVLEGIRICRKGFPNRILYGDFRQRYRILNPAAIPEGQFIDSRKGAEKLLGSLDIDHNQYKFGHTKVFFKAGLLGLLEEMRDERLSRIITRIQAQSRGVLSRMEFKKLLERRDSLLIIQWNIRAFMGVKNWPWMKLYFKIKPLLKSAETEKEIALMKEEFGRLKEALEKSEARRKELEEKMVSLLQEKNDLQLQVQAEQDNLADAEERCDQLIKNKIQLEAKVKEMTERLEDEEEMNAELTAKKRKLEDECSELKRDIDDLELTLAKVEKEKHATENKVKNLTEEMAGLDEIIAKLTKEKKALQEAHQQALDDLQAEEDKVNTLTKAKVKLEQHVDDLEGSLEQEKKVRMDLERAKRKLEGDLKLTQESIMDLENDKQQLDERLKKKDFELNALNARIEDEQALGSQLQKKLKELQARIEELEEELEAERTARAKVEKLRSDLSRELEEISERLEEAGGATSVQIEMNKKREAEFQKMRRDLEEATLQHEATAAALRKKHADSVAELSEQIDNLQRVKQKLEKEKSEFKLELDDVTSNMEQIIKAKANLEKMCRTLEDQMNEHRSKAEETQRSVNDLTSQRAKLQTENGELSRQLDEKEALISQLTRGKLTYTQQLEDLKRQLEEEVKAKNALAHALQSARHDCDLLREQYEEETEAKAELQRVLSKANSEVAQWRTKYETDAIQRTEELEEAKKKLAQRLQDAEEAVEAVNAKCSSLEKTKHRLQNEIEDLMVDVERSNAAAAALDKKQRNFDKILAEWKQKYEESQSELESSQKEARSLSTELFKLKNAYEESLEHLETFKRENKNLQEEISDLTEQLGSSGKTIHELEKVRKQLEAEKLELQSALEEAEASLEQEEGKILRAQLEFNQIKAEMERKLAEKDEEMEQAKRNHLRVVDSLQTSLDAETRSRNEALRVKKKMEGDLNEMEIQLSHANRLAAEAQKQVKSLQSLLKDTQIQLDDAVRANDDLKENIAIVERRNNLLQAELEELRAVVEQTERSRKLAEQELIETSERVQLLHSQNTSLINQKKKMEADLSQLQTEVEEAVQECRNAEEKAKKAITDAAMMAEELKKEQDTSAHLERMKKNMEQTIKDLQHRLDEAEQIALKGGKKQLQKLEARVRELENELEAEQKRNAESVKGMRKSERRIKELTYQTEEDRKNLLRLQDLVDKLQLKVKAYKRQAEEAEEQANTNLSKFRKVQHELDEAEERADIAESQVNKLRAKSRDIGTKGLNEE
T1 sequence (P85100 whole entry partner): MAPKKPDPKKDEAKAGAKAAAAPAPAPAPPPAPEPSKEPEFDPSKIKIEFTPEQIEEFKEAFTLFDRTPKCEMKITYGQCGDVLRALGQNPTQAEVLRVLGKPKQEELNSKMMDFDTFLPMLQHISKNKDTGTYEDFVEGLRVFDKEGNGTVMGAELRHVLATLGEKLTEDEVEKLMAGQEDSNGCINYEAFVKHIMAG
T1 sequence (Q3SZE5 whole entry partner): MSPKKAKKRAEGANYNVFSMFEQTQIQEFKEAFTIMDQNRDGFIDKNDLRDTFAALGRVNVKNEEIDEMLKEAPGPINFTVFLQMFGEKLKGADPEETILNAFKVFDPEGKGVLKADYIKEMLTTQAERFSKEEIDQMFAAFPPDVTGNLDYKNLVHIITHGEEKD

Compound | IC50
CC(C)n1c(=O)cc(N[C@@H](C)Cc2ccc(F)cc2)[nH]c1=O [Compound 51, (S)-6-((1-(4-fluorophenyl)propan-2-yl)amino)-3-isopropylpyrimidine-2,4(1H,3H)-dione] | 1000 to 15000 nM

Same assay, conditions: bovine cardiac myofibrils, calcium giving 50% activation (pCa50); read-out: Biochemical Activity (pCa50)

Compound | IC50
C[C@H](Nc1cc(=O)n([C@H](C)C2CC2)c(=O)[nH]1)c1ccccc1 [Compound 104] | < 1000 nM
COCCn1c(=O)cc(N[C@@H](C)c2ccccc2)[nH]c1=O [Compound 102] | 1000 to 15000 nM
C[C@H](n1c(=O)cc(N[C@@H](C)Cc2ccc(F)cc2)[nH]c1=O)C(F)(F)F [Compound 114] | < 1000 nM
CC[C@H](C)n1c(=O)cc(N[C@@H](C)c2ccc(F)cc2)[nH]c1=O [Compound 135] | < 1000 nM
CCCn1c(=O)cc(N[C@@H](C)c2cccc(C(F)(F)F)c2)[nH]c1=O [Compound 131] | < 1000 nM
Cc1cccc(-n2c(=O)cc(N[C@@H](C)c3ccccc3)[nH]c2=O)n1 [Compound 65, (S)-3-(6-methylpyridin-2-yl)-6-((1-phenylethyl)amino)pyrimidine-2,4(1H,3H)-dione] | 1000 to 15000 nM
C[C@H](Nc1cc(=O)n([C@H](C)CO)c(=O)[nH]1)c1ccccc1 [Compound 54, 3-((R)-1-hydroxypropan-2-yl)-6-(((S)-1-phenylethyl)amino)pyrimidine-2,4(1H,3H)-dione] | 1000 to 15000 nM
O=c1cc(N[C@H](c2ccccc2)C2CCC2)[nH]c(=O)n1CC(F)(F)F [Compound 112] | < 1000 nM
CCn1c(=O)cc(N[C@@H](C)c2cccc(Cl)c2)[nH]c1=O [Compound 123] | < 1000 nM
CCn1c(=O)cc(N[C@H](c2ccccc2)C2CC2)[nH]c1=O [Compound 122] | 1000 to 15000 nM
C[C@@H](Cc1ccc(F)cc1)Nc1cc(=O)n(-c2cc(F)cc(F)c2)c(=O)[nH]1 [Compound 118] | < 1000 nM
C[C@H](Nc1cc(=O)n(C(CO)CO)c(=O)[nH]1)c1ccccc1 [Compound 113] | 1000 to 15000 nM
CC(C)n1c(=O)cc(N[C@@H](C)c2ccccc2O)[nH]c1=O [Compound 116] | < 1000 nM
CC(C)n1c(=O)cc(N[C@@H](C)c2ccc(OCc3ccccc3)cc2)[nH]c1=O [Compound 62, (S)-6-((1-(4-(benzyloxy)phenyl)ethyl)amino)-3-isopropylpyrimidine-2,4(1H,3H)-dione] | < 1000 nM

Same assay, conditions: bovine cardiac myofibrils, calcium giving 75% activation (pCa75); read-out: Biochemical Activity (pCa75)

Compound | IC50
C[C@H](Nc1cc(=O)n(-c2ccon2)c(=O)[nH]1)c1ccccc1 [Compound 16, (S)-3-(Isoxazol-3-yl)-6-(1-phenylethylamino)pyrimidine-2,4(1H,3H)-dione] | 1000 to 15000 nM
CC(C)n1c(=O)cc(N[C@@H](C)c2cccc(-n3ccnc3)c2)[nH]c1=O [Compound 72] | 1000 to 15000 nM
CC(CC(F)(F)F)n1c(=O)cc(N[C@@H](C)c2ccccc2)[nH]c1=O (stereo partly drawn) [Compound 99] | < 1000 nM
COc1cccc([C@H](C)Nc2[nH]c(=O)n(C(C)C)c(=O)c2F)c1 [Compound 33] | < 1000 nM
CC(C)[C@H](Nc1cc(=O)n(C(C)C)c(=O)[nH]1)c1ccccc1 [Compound 81] | 1000 to 15000 nM
CC(C)n1c(=O)cc(N[C@H](c2ccccc2)C(F)(F)F)[nH]c1=O [Compound 52, (R)-3-isopropyl-6-((2,2,2-trifluoro-1-phenylethyl)amino)pyrimidine-2,4(1H,3H)-dione] | < 1000 nM
Cc1cccc([C@H](C)Nc2cc(=O)n(C(C)C)c(=O)[nH]2)c1 [Compound 50, (S)-3-isopropyl-6-((1-(m-tolyl)ethyl)amino)pyrimidine-2,4(1H,3H)-dione] | < 1000 nM
C[C@H](Nc1cc(=O)n(-c2c(F)cccc2F)c(=O)[nH]1)c1ccccc1 [Compound 58, (S)-3-(2,6-difluorophenyl)-6-((1-phenylethyl)amino)pyrimidine-2,4(1H,3H)-dione] | < 1000 nM
CCC[C@H](Nc1cc(=O)n(C(C)C)c(=O)[nH]1)c1ccccc1 [Compound 78] | < 1000 nM
C[C@H](Nc1cc(=O)n([C@H](C)CO)c(=O)[nH]1)c1ccccc1 [Compound 54, 3-((R)-1-hydroxypropan-2-yl)-6-(((S)-1-phenylethyl)amino)pyrimidine-2,4(1H,3H)-dione] | 1000 to 15000 nM
CC(C)n1c(=O)cc(N[C@@H](C)c2ccc(F)cc2)[nH]c1=O [Compound 30] | < 1000 nM

Same assay, conditions: pCa75; assay conducted using 0.5 μM myosin, IC50 values below 1.0 μM are approximate; read-out: IC50 (pCa75)

Compound | IC50
COc1cccc([C@@H](C)Nc2cc(=O)n(C(C)C)c(=O)[nH]2)c1 [Compound 20R] | 19600 nM
